From patent US6726911B1, “Biologically active compounds of Ganoderma pfeifferi DSM 13239” (Ganomycin, priority 1999, dated 2004)
Like-named read-outs stand apart in the source and are kept apart here.

Key:
influenza virus type A = test: antiviral activity
CD-14 receptor = target: T1, CD-14 receptor (Homo sapiens, UniProt P08571); test: serum-mediated binding of FITC-labeled lipopolysaccharide to CD-14 transfected Chinese hamster ovary cell lines; format: cell-based; details: CD14+ cells
T1 construct: expressed in transfected cells; host or cells: Chinese hamster ovary cell lines
T1 sequence (P08571 20-345): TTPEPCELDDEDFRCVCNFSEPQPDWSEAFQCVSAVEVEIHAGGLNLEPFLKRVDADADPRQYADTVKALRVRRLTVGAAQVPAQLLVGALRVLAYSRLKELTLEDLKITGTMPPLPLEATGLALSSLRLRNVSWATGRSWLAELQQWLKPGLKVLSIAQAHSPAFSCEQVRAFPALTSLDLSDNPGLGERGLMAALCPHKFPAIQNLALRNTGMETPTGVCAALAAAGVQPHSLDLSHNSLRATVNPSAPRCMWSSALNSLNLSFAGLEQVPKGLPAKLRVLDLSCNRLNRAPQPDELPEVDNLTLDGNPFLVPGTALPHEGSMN
Procedure: Methods: The test was performed according to Grunwald (CD-14 als Rezeptor für Endotoxin: in vitro-Untersuchungen zu Bindungsmodalitaten von LPS und zur Beeinflussung der Expression. Dissertation Ernst-Moritz-Arndt-Universität Greifswald 1993). For the tests, cell lines from ovaries of Chinese hamsters were used which express the CD-14 receptor after transfection of the CD-14 gene. The lipopolysaccharide was labeled with FITC so that the binding to the receptor could be determined by measuring the fluorescence intensity.

[1] = tested on: oxygen free-radical release; test: free-radical scavenging by luminol chemiluminescence in zymosan-stimulated human blood; format: cell-based; details: 10 μg/ml
Procedure: The proof was established as follows:
A: […] was preincubated with […] of PBS+luminol (0.33 mM final) at 37° C. for 20 min.
B: 30 μl of human blood was preincubated with […] of PBS+luminol (0.33 mM final) and […] of substance dilution at 37° C. for 20 min.
To A was pipetted 20 μl of a 1:100 dilution of the extract of Example 11 and 20 μl of zymosan (10 mg/ml).
To B was pipetted 20 μl of zymosan (10 mg/ml).
As a control, PBS was used instead of zymosan as a stimulator with and without substance in charges A and B. After intensive mixing, the kinetics of the luminescence were measured over 60 min. The examinations were performed on two different days with blood from two different blood donors.
Methods: The free-radical scavenging function of the active substances of formula 1, ganomycin A and ganomycin B, broadens the possibilities of medicinal use. The proof was established as in the examination of the extracts according to Example 48.

[2] = tested on: Aeromonas hydrophila DSM 30019; test: agar diffusion test on fish-pathogenic bacteria; format: cell-based
[3] = tested on: Vibrio anguillarum ATCC 1188; test: agar diffusion test on fish-pathogenic bacteria; format: cell-based
[4] = tested on: Aeromonas salmonicida subsp. salmonicida 67 A 1; test: agar diffusion test on fish-pathogenic bacteria; format: cell-based
S. aureus = test: agar diffusion test
Procedure: In the first stage of examination, the agar diffusion test was employed. The extracts and substances to be tested were respectively dissolved using appropriate solvents (dichloromethane, methanol and water) and applied to filter paper sheets in different concentrations. Comparative sheets soaked with 25 μl of the corresponding solvent served as a control. Ampicillin (10 μg/sheet) was employed as a reference substance. The dried filter paper sheets were finally placed onto agar plates. For the basic screening, nutrient agar II (VEB Immunpraparate, Berlin, Germany) was employed, and for the examination on strains isolated from patient material, Mueller-Hinton II agar (Becton Dickinson Microbiology Systems, Cockeysville, USA) was employed. Using an inoculation wire loop, a pinheadful of test germ culture was suspended in 3 ml of a sterile 0.90% NaCl solution. Subsequently, 200 μl of the germ suspension was added to 20 ml of sterile, liquefied and slightly warm nutrient agar and cast into Petri dishes having a diameter of 10 cm. After placing the sheets onto the congealed agar, the plates were preincubated at 8° C. for about 2 to 3 hours, followed by incubation of the plates in an incubator at 37° C. for 24 hours. Micrococcus flavus was an exception. This culture was stored only at room temperature because the germ reaches its optimum growth at 20° C.
The evaluation of the plates was effected by measuring the diameters of the inhibition halos. All operations were done under aseptic conditions.

S. haemolyticus = test: agar diffusion test on pathogens of Gram-positive infections; details: S. haemolyticus (multiresistant strains isolated from patient material)
Procedure: (§1) In the first stage of examination, the agar diffusion test was employed. The extracts and substances to be tested were respectively dissolved using appropriate solvents (dichloromethane, methanol and water) and applied to filter paper sheets in different concentrations. Comparative sheets soaked with 25 μl of the corresponding solvent served as a control. Ampicillin (10 μg/sheet) was employed as a reference substance. The dried filter paper sheets were finally placed onto agar plates. For the basic screening, nutrient agar II (VEB Immunpraparate, Berlin, Germany) was employed, and for the examination on strains isolated from patient material, Mueller-Hinton II agar (Becton Dickinson Microbiology Systems, Cockeysville, USA) was employed. Using an inoculation wire loop, a pinheadful of test germ culture was suspended in 3 ml of a sterile 0.90% NaCl solution. Subsequently, 200 μl of the germ suspension was added to 20 ml of sterile, liquefied and slightly warm nutrient agar and cast into Petri dishes having a diameter of 10 cm. After placing the sheets onto the congealed agar, the plates were preincubated at 8° C. for about 2 to 3 hours, followed by incubation of the plates in an incubator at 37° C. for 24 hours. Micrococcus flavus was an exception. This culture was stored only at room temperature because the germ reaches its optimum growth at 20° C. […]

Enterococci = test: as above; details: Enterococci (multiresistant strains isolated from patient material)
Procedure: as §1

[5] = tested on: human hepatoma cells (PLC/PRF/5 cells); details: Hager, reference 66; cited from earlier work
KB cells = details: Hager, reference 66; cited from earlier work
[6] = tested on: peritoneal mast cells of rats; details: 2 mg/ml; Hager, reference 31; cited from earlier work
[7] = target: angiotensin-converting enzyme (Homo sapiens, UniProt P12821); details: in vitro; Hager, reference 39; cited from earlier work
Sequence of angiotensin-converting enzyme (P12821 30-1306, species assumed): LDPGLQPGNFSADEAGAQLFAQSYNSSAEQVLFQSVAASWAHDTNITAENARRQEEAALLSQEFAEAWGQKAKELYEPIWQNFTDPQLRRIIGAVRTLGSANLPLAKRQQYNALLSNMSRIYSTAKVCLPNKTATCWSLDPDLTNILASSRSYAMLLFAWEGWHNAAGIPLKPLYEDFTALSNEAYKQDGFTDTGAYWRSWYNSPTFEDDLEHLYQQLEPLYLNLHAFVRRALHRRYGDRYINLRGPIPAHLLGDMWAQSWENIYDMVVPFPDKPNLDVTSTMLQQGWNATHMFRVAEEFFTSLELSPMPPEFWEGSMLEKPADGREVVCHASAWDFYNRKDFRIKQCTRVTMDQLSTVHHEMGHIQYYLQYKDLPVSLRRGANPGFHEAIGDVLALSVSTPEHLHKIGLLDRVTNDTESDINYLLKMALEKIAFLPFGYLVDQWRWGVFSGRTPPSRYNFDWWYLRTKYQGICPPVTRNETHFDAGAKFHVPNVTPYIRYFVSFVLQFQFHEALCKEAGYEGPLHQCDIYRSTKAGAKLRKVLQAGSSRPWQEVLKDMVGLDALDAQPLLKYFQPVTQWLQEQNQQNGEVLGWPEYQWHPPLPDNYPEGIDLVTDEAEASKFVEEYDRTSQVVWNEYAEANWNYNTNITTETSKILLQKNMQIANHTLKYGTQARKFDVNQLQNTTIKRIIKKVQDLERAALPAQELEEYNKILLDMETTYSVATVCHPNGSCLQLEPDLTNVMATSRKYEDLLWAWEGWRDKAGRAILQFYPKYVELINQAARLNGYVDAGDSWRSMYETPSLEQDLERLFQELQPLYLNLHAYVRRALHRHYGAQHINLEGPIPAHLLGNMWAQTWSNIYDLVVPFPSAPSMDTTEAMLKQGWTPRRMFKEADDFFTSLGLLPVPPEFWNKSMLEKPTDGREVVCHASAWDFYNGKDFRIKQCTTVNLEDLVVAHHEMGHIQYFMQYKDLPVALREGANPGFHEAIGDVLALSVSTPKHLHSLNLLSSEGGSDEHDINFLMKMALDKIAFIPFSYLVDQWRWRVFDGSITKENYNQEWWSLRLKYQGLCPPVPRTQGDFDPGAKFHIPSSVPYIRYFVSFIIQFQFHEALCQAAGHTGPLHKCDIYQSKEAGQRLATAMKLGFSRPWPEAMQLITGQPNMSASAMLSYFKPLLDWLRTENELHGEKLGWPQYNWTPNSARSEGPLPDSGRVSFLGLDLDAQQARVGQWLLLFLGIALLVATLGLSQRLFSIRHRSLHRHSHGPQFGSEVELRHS

Procedure for S. epidermidis: Methods: Extracts according to Example 9 in a concentration of 2 mg/l were dropped onto standardized test plates for the resistance assay for the commercially available antibiotics amicazin, trimethroprim and fusidinic acid (Sensi-Disk Antibiotics Test Plates, Becton Dickinson Microbiology Systems, Cockeysville, USA). The antibacterial activity was determined according to Example 1 on multiresistant coagulase-negative staphylococci isolated from patient material.

C/C(=C\CC[C@@H](C)[C@H]1CC[C@@]2(C)C3=C(CC[C@]12C)[C@@]1(C)CC[C@H](O)C(C)(C)[C@@H]1CC3=O)CO [Ganoderone B, 3,26-dihydroxylanosta-8,24-diene-7-one]
antiviral activity against influenza virus type A (influenza virus type A): has antiviral activity
inhibition of the lipopolysaccharide binding (in words) (CD-14 receptor): inhibits

CC(=CCCC(C)=CCCC(=CCc1cc(O)ccc1O)C(=O)O)CO [Ganomycin A, 2-[2-(2,5-dihydroxyphenyl)ethylidene]-11-hydroxy-6,10-dimethylundeca-5,9-dienic acid]
luminol-induced and spontaneous oxygen free-radical release [1]: inhibit
Diameter of inhibition halo [2]: 15 mm
Diameter of inhibition halo [3]: 10 mm
Diameter of inhibition halo [4]: 10 mm
inhibition of the lipopolysaccharide binding (in words) (CD-14 receptor): causes inhibition

CC(C)=CCCC(C)=CCCC(=CCc1cc(O)ccc1O)C(=O)O [Ganomycin B, 2-[2-(2,5-dihydroxyphenyl)ethylidene]-6,10-dimethylundeca-5,9-dienic acid]
luminol-induced and spontaneous oxygen free-radical release [1]: inhibit
Diameter of inhibition halo [2]: 17 mm
Diameter of inhibition halo [3]: 26 mm
Inhibition halo (S. epidermidis; S. epidermidis 125, extract 2 mg/l dropped onto antibiotic test plates): 16 mm
Inhibition halo (S. epidermidis; S. epidermidis 473, extract 2 mg/l dropped onto antibiotic test plates): 20 mm
Inhibition halo (S. epidermidis; S. epidermidis 847, extract 2 mg/l dropped onto antibiotic test plates): 16 mm
Inhibition halo (S. epidermidis; S. epidermidis (multiresistant strains isolated from patient material)): 16-20 mm
Diameter of inhibition halo [4]: 12 mm
Inhibition halo (S. aureus; S. aureus (MRSA strains isolated from patient material)): 10-16 mm
Inhibition halo (S. aureus; S. aureus ATCC 6538): 30 mm
Inhibition halo (S. aureus; S. aureus ATCC 25923): 25 mm
Inhibition halo (S. aureus; S. aureus ATCC 29213): 22 mm
Inhibition halo (S. aureus; S. aureus reference strain “North-German Strain” (Smith Kline Beecham)): 16 mm
Inhibition halo (S. haemolyticus): 12-16 mm
Inhibition halo (Enterococci): 10-14 mm
inhibition of the lipopolysaccharide binding (in words) (CD-14 receptor): causes inhibition

CC(C)[C@@H](C)C=C[C@@H](C)[C@H]1CC[C@H]2C3=CCC4C[C@H](O)[C@@H](O)C[C@]4(C)[C@@]3(O)CC[C@]12C (stereo partly drawn) [ergosta-7,22-diene-2β,3α,9α-triol]
ED50 for the hepatoma cells [5]: 1170 µg/mL
ED50 for KB cells (KB cells): 0.89 µg/mL

CC(CC(=O)C[C@@H](C)[C@H]1CC(=O)[C@@]2(C)C3=C(C(=O)C[C@]12C)[C@@]1(C)CCC(=O)C(C)(C)[C@@H]1C[C@@H]3O)C(=O)O (some centres unmarked) [ganoderic acid D]
reduction of 48/80-induced histamine release [6]: 80%
reduction of Con-A-induced histamine release [6]: 80%

CC(=O)O[C@@H]1C(=O)C2=C(C(=O)C[C@H]3C(C)(C)C(=O)CC[C@]23C)[C@]2(C)C(=O)C[C@H]([C@H](C)CC(=O)CC(C)C(=O)O)[C@@]12C (some centres unmarked) [ganoderic acid F]
IC50 [7]: 4.7 µM

ganoderaldehyde A
ED50 for the hepatoma cells [5]: 10.99 µg/mL
ED50 for KB cells (KB cells): 9.75 µg/mL

ganoderic acid C
reduction of 48/80-induced histamine release [6]: 70%
reduction of Con-A-induced histamine release [6]: 85%
